Source: paper PMC9415947 (Pharmaceuticals, 2022)

Legend:
Format in all cases: biochemical
PI3Kδ = target: T1, PI3Kδ (Homo sapiens, UniProt O00329); test: In vitro PI3K inhibition assay (ADP-Glo kinase assay), PI3Kδ; conditions: mean of two independent experiments
T1 construct: purchased Merck Millipore
Procedure: (§1) All compounds were tested in a biochemical assay that measured the inhibition of phosphatidylinositol […] production by PI3K isoforms using the ADP-Glo kinase assay (Promega). In addition, the effects of synthesized compounds on B cell proliferation were measured.
(§2) The potency and selectivity of compounds were assessed by measuring the ability of PI3K kinases to convert ATP to ADP during an enzymatic reaction in the presence of decreasing doses of tested compounds. The experiments were carried out using the ADP-Glo kinase assay kit (Promega), according to the manufacturer’s protocol. PI3Kα, PI3Kβ, PI3Kδ, and PI3Kγ have been purchased from Merck Millipore and phosphoinositol-4,5-bisphosphate (PIP2) lipid vesicles with phosphoserine from ThermoFisher Scientific were used as a substrate in the enzymatic reaction.
(§3) After the reaction, the ADP-Glo reagent and the kinase detection reagent were added sequentially with 40 min of incubation (25 °C, 600 rpm) after adding each reagent. Finally, the luminescence intensity was measured and the IC50 was calculated using GraphPad Prism 7 software. The presented results are the mean value of IC50 from at least two independent experiments.

PI3Kα = target: T2, PI3Kα (Homo sapiens, UniProt P42336); test: In vitro PI3K inhibition assay (ADP-Glo kinase assay), PI3Kα; conditions: for Fold Selectivity α/δ: ratio IC50 PI3Kα / IC50 PI3Kδ
T2 construct: purchased Merck Millipore (methods text)
Procedure: as §1, §2, §3

PI3Kβ = target: T3, PI3Kβ (Homo sapiens, UniProt P42338); test: In vitro PI3K inhibition assay (ADP-Glo kinase assay), PI3Kβ; conditions: for IC50: mean of two independent experiments; for Fold Selectivity β/δ: ratio IC50 PI3Kβ / IC50 PI3Kδ
T3 construct: purchased Merck Millipore
Procedure: as §1, §2, §3

PI3Kγ = target: T4, PI3Kγ (Homo sapiens, UniProt P48736); test: In vitro PI3K inhibition assay (ADP-Glo kinase assay), PI3Kγ; conditions: for IC50: mean of two independent experiments; for Fold Selectivity γ/δ: ratio IC50 PI3Kγ / IC50 PI3Kδ
T4 construct: purchased Merck Millipore
Procedure: as §1, §2, §3

T2 sequence (P42336 whole entry): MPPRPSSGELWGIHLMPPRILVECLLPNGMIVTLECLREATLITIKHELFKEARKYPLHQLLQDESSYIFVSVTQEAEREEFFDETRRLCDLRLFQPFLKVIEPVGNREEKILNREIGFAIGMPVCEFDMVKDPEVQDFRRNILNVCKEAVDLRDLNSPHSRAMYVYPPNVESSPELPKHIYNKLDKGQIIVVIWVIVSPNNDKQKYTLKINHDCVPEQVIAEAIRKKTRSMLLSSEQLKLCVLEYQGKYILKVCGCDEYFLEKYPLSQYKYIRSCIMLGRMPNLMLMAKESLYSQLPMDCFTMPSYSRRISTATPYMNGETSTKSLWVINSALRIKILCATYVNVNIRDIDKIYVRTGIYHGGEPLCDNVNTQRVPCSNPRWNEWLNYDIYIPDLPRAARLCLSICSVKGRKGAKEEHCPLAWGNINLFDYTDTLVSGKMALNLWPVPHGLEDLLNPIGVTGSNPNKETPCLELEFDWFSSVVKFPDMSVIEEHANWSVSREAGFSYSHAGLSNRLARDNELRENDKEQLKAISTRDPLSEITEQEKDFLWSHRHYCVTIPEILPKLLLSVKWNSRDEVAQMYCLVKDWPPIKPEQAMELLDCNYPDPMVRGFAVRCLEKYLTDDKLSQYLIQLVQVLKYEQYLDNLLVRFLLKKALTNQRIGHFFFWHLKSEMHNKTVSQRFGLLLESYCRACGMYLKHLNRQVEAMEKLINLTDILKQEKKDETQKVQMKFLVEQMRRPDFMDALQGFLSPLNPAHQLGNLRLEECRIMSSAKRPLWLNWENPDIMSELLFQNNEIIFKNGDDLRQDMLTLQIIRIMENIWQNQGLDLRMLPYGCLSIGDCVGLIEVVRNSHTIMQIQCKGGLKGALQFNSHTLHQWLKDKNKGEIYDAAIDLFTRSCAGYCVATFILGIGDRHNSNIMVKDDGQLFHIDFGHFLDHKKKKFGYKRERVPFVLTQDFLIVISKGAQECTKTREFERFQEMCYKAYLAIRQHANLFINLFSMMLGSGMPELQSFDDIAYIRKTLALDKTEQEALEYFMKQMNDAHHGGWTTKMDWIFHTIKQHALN
T2 sequence (P27986 whole entry partner): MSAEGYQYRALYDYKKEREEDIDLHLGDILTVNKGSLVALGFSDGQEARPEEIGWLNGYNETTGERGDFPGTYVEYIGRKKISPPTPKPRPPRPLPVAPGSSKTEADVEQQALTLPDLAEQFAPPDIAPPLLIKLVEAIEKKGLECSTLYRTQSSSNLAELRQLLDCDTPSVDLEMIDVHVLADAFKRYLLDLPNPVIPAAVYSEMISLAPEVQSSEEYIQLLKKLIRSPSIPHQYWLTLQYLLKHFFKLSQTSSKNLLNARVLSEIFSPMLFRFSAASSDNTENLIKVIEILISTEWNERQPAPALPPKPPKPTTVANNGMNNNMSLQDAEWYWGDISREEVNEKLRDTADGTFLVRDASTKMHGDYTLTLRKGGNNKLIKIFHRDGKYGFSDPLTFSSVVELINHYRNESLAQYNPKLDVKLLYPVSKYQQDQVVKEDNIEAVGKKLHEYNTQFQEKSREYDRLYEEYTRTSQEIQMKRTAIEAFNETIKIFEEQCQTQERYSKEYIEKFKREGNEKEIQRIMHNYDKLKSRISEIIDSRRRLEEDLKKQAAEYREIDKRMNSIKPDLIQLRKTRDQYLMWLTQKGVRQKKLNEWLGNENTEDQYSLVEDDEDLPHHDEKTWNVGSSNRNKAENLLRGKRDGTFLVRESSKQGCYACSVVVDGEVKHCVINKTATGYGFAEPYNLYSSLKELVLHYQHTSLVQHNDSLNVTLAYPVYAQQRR
T4 sequence (P48736 whole entry): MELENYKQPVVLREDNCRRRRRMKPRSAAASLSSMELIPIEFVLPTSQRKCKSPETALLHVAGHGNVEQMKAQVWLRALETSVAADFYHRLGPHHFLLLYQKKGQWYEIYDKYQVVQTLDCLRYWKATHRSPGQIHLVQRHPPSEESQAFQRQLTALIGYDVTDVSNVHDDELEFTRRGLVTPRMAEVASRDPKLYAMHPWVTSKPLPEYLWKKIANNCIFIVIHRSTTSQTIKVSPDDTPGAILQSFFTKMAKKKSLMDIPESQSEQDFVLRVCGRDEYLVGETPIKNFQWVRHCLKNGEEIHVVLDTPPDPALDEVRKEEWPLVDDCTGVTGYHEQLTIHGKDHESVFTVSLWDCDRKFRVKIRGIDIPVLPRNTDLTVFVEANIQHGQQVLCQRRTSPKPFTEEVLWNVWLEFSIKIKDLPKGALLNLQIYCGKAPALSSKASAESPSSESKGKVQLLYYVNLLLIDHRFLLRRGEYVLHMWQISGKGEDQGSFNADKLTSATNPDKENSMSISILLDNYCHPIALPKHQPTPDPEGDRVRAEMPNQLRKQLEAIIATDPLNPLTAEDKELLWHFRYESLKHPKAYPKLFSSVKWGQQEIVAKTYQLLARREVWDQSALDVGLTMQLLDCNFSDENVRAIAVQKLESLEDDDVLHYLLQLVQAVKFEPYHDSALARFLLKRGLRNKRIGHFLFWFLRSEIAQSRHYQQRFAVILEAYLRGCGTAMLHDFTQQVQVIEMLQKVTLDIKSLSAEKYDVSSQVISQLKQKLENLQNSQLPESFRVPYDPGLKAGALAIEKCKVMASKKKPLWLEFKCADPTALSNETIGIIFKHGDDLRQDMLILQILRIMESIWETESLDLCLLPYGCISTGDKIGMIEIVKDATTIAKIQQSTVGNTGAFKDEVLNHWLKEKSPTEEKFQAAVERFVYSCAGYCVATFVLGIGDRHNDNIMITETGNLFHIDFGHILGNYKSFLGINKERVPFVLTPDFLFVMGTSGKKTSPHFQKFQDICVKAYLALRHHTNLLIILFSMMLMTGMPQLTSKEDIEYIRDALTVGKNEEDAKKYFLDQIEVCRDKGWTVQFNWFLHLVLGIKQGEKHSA
T3 sequence (P42338 whole entry, looked up): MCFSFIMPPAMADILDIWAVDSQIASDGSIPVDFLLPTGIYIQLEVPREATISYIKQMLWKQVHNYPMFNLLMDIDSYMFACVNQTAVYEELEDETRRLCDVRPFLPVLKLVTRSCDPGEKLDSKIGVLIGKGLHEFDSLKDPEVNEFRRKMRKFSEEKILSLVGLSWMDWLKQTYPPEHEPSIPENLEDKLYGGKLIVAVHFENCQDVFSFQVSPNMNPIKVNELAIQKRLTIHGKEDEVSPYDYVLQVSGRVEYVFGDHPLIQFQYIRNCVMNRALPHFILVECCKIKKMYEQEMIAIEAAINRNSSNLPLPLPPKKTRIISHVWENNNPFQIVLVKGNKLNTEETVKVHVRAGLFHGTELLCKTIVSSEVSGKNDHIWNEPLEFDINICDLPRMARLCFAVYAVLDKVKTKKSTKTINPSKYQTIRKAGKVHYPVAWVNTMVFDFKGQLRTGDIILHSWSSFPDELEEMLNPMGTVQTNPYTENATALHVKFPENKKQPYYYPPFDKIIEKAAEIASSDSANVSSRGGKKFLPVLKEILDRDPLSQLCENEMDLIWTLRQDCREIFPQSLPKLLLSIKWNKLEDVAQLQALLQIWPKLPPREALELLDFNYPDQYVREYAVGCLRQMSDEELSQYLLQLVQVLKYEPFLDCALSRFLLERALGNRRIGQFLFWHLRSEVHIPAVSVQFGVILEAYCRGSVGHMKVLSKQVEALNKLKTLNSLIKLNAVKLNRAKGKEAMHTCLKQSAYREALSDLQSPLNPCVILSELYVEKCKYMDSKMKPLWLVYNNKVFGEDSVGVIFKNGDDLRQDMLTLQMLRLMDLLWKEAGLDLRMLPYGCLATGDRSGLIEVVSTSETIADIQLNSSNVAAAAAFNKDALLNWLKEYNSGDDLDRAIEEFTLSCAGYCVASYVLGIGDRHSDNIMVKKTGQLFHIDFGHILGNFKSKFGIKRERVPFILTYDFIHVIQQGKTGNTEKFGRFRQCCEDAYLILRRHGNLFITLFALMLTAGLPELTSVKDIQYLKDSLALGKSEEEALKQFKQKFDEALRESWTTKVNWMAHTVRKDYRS
T1 sequence (O00329 whole entry, looked up): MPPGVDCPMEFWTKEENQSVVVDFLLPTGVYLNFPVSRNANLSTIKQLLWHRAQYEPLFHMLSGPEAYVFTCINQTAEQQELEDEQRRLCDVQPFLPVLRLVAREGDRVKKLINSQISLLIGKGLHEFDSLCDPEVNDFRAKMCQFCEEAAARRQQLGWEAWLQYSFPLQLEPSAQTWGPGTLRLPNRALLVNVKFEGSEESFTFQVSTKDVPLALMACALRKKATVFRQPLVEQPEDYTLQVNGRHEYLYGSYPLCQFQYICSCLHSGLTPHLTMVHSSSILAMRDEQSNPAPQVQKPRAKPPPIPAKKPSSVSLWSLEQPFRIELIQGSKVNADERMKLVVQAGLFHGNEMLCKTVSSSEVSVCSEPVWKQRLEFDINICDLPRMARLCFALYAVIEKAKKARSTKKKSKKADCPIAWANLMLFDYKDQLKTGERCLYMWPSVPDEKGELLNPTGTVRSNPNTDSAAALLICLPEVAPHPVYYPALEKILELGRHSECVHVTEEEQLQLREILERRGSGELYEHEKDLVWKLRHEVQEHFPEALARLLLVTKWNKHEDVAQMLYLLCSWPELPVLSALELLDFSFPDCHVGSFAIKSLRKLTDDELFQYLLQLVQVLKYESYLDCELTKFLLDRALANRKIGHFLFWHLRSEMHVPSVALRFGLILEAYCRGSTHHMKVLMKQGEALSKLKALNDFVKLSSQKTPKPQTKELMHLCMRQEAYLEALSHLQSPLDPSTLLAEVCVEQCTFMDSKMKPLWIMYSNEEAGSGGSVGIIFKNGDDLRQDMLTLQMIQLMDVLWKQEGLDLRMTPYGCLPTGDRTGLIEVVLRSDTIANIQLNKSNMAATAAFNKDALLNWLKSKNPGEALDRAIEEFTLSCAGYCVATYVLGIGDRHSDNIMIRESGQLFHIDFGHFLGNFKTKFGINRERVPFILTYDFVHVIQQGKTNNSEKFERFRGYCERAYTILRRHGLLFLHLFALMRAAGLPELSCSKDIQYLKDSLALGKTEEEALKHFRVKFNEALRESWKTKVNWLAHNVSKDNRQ

| SMILES | IC50 (PI3Kδ) [nM] | IC50 (PI3Kα) [nM] | Fold Selectivity α/δ (PI3Kα) | IC50 (PI3Kβ) [nM] | Fold Selectivity β/δ (PI3Kβ) | IC50 (PI3Kγ) [nM] | Fold Selectivity γ/δ (PI3Kγ) |
| --- | --- | --- | --- | --- | --- | --- | --- |
| Cc1nc2ccccc2n1-c1cc(N2CCOCC2)n2nc(CN3CCN(C(C)(C)C)CC3)cc2n1 [Compound 5, 1-{2-[(4-tert-butylpiperazin-1-yl)methyl]-7-(morpholin-4-yl)pyrazolo[1,5-a]pyrimidin-5-yl}-2-methyl-1H-benzimidazole] | 236 | 10600 | 45 | 298000 | 1264 | 175000 | 742 |
| CCc1nc2ccccc2n1-c1cc(N2CCOCC2)n2nc(CN3CCN(C(C)(C)C)CC3)cc2n1 [Compound 7, 1-{2-[(4-tert-butylpiperazin-1-yl)methyl]-7-(morpholin-4-yl)pyrazolo[1,5-a]pyrimidin-5-yl}-2-ethyl-1H-benzimidazole] | 385 | 28700 | 74 | 266000 | 690 | 258000 | 671 |
| CC(C)(C)N1CCN(Cc2cc3nc(-n4c(C5CC5)nc5ccccc54)cc(N4CCOCC4)n3n2)CC1 [Compound 8, 1-{2-[(4-tert-butylpiperazin-1-yl)methyl]-7-(morpholin-4-yl)pyrazolo[1,5-a]pyrimidin-5-yl}-2-cyclopropyl-1H-benzimidazole] | 1070 | 82500 | 77 | 259000 | 242 | 271000 | 253 |
| CC(C)(O)C1CCN(Cc2cc3nc(-n4c(C(F)F)nc5ccccc54)cc(N4CCOCC4)n3n2)CC1 [Compound 11, 2-[1-({5-[2-(difluoromethyl)-1H-benzimidazol-1-yl]-7-(morpholin-4-yl)pyrazolo[1,5-a]pyrimidin-2-yl}methyl)piperidin-4-yl]propan-2-ol] | 52 | 1730 | 33 | – | – | 6350 | 122 |
| Cc1nc2ccccc2n1-c1cc(N2CCOCC2)n2nc(CN3CCC(C(C)(C)O)CC3)cc2n1 [Compound 12, 2-(1-{[5-(2-methyl-1H-1,3-benzimidazol-1-yl)-7-(morpholin-4-yl)pyrazolo[1,5-a]pyrimidin-2-yl]methyl}piperidin-4-yl)propan-2-ol] | 878 | 30500 | 35 | 195000 | 222 | 119000 | 136 |
| O=C(c1cc2nc(-n3c(C(F)F)nc4ccccc43)cc(N3CCOCC3)n2n1)N1CCN(C(=O)C2CC2)CC1 [Compound 43, 1-[2-(4-cyclopropanecarbonylpiperazine-1-carbonyl)-7-(morpholin-4-yl)pyrazolo[1,5-a]pyrimidin-5-yl]-2-(difluoromethyl)-1H-1,3-benzimidazole] | 63 | – | – | – | – | 3830 | 61 |
| O=C(c1cc2nc(-n3c(C(F)F)nc4ccccc43)cc(N3CCOCC3)n2n1)N1CCCC1CO (stereo not shown) [Compound 44, (1-{5-[2-(difluoromethyl)-1H-1,3-benzodiazol-1-yl]-7-(morpholin-4-yl)pyrazolo[1,5-a]pyrimidine-2-carbonyl}pyrrolidin-2-yl)methanol] | 459 | – | – | – | – | 2020 | 4.4 |
| NC1CCN(C(=O)c2cc3nc(-n4c(C(F)F)nc5ccccc54)cc(N4CCOCC4)n3n2)C1 (stereo not shown) [Compound 45, 1-{5-[2-(difluoromethyl)-1H-1,3-benzodiazol-1-yl]-7-(morpholin-4-yl)pyrazolo[1,5-a]pyrimidine-2-carbonyl}pyrrolidin-3-amine] | 1700 | – | – | – | – | 23300 | 14 |
| O=C(c1cc2nc(-n3c(C(F)F)nc4ccccc43)cc(N3CCOCC3)n2n1)N1CCOCC1 [Compound 46, 2-(difluoromethyl)-1-[7-(morpholin-4-yl)-2-(morpholine-4-carbonyl)pyrazolo[1,5-a]pyrimidin-5-yl]-1H-1,3-benzimidazole] | 226 | – | – | – | – | 8540 | 38 |
| O=C(c1cc2nc(-n3c(C(F)F)nc4ccccc43)cc(N3CCOCC3)n2n1)N1CCC(F)(F)CC1 [Compound 47, 2-(difluoromethyl)-1-[2-(4,4-difluoropiperidine-1-carbonyl)-7-(morpholin-4-yl)pyrazolo[1,5-a]pyrimidin-5-yl]-1H-1,3-benzimidazole] | 801 | – | – | – | – | 35800 | 45 |
| NC(=O)C1CCN(C(=O)c2cc3nc(-n4c(C(F)F)nc5ccccc54)cc(N4CCOCC4)n3n2)CC1 [Compound 48, 1-{5-[2-(difluoromethyl)-1H-1,3-benzimidazol-1-yl]-7-(morpholin-4-yl)pyrazolo[1,5-a]pyrimidine-2-carbonyl}piperidine-4-carboxamide] | 314 | – | – | – | – | 2790 | 9 |
| CC1(O)CCN(C(=O)c2cc3nc(-n4c(C(F)F)nc5ccccc54)cc(N4CCOCC4)n3n2)CC1 [Compound 49, 1-{5-[2-(difluoromethyl)-1H-1,3-benzimidazol-1-yl]-7-(morpholin-4-yl)pyrazolo[1,5-a]pyrimidine-2-carbonyl}-4-methylpiperidin-4-ol] | 213 | – | – | – | – | 1820 | 8.5 |
| O=C(c1cc2nc(-n3c(C(F)F)nc4ccccc43)cc(N3CCOCC3)n2n1)N1CCC(CO)CC1 [Compound 50, (1-{5-[2-(difluoromethyl)-1H-1,3-benzimidazol-1-yl]-7-(morpholin-4-yl)pyrazolo[1,5-a]pyrimidine-2-carbonyl}piperidin-4-yl)methanol] | 90 | – | – | – | – | 1780 | 20 |
| N#CC1CCN(C(=O)c2cc3nc(-n4c(C(F)F)nc5ccccc54)cc(N4CCOCC4)n3n2)CC1 [Compound 51, 1-{5-[2-(difluoromethyl)-1H-1,3-benzimidazol-1-yl]-7-(morpholin-4-yl)pyrazolo[1,5-a]pyrimidine-2-carbonyl}piperidine-4-carbonitrile] | 344 | – | – | – | – | 1630 | 4.7 |
| O=C(c1cc2nc(-n3c(C(F)F)nc4ccccc43)cc(N3CCOCC3)n2n1)N1CCC(N2CCOCC2)CC1 [Compound 52, 2-(difluoromethyl)-1-[7-(morpholin-4-yl)-2-[4-(morpholin-4-yl)piperidine-1-carbonyl]pyrazolo[1,5-a]pyrimidin-5-yl]-1H-1,3-benzimidazole] | 92 | – | – | – | – | 5950 | 65 |
| O=C(c1cc2nc(-n3c(C(F)F)nc4ccccc43)cc(N3CCOCC3)n2n1)N1CCC(O)CC1 [Compound 53, 1-{5-[2-(difluoromethyl)-1H-1,3-benzimidazol-1-yl]-7-(morpholin-4-yl)pyrazolo[1,5-a]pyrimidine-2-carbonyl}piperidin-4-ol] | 195 | – | – | – | – | 2080 | 11 |
| CC(=O)NC1CCN(C(=O)c2cc3nc(-n4c(C(F)F)nc5ccccc54)cc(N4CCOCC4)n3n2)CC1 [Compound 54, N-(1-{5-[2-(difluoromethyl)-1H-1,3-benzimidazol-1-yl]-7-(morpholin-4-yl)pyrazolo[1,5-a]pyrimidine-2-carbonyl}piperidin-4-yl)acetamide] | 141 | – | – | – | – | 1690 | 12 |
| CNC(=O)CN1CCN(C(=O)c2cc3nc(-n4c(C(F)F)nc5ccccc54)cc(N4CCOCC4)n3n2)CC1 [Compound 55, 2-(4-{5-[2-(difluoromethyl)-1H-1,3-benzimidazol-1-yl]-7-(morpholin-4-yl)pyrazolo[1,5-a]pyrimidine-2-carbonyl}piperazin-1-yl)-N-methylacetamide] | 82 | – | – | – | – | 2170 | 26 |
| CN1CCN(C(=O)c2cc3nc(-n4c(C(F)F)nc5ccccc54)cc(N4CCOCC4)n3n2)CC1 [Compound 56, 2-(difluoromethyl)-1-[2-(4-methylpiperazine-1-carbonyl)-7-(morpholin-4-yl)pyrazolo[1,5-a]pyrimidin-5-yl]-1H-1,3-benzimidazole] | 768 | – | – | – | – | 11400 | – |
| CC(C)N1CCN(C(=O)c2cc3nc(-n4c(C(F)F)nc5ccccc54)cc(N4CCOCC4)n3n2)CC1 [Compound 57, 2-(difluoromethyl)-1-[7-(morpholin-4-yl)-2-[4-(propan-2-yl)piperazine-1-carbonyl]pyrazolo[1,5-a]pyrimidin-5-yl]-1H-1,3-benzimidazole] | 271 | – | – | – | – | 25500 | – |
